Experimental data taken from US8053435B2, “Naphthalenyloxypropenyl derivatives having inhibitory activity against histone deacetylase and pharmaceutical composition comprising the same” (Korea Research Institute of Chemical Technology, priority 2006, dated 2011).
Where two headings read alike, the source gives them in different places.

System: HDAC
Test: Inhibitory activity against HDAC (BIOMOL Quantizyme Assay system, Fluor de Lys substrate)
Format: biochemical
Details: HeLa nuclear extract as source of HDAC enzymes, enzyme reaction 1 hr
Protocol: HDAC activity was analyzed using BIOMOL Quantizyme™ Assay system which comprised two steps of 1) enzyme reaction between HDAC and a substrate and 2) determination of the level of HDAC inhibitory activity.
(§1) 0.5 μl of HeLa nuclear organic layer (10 μM) (a source of HDAC enzymes) was then added thereto to a final concentration of 100 nM. The enzyme reaction was carried out for 1 hr.
Subsequently, in step 2), 2 μM tricostatin A was added to 50 μl of Flour de Lys™ developer, followed by allowing the mixture to react at room temperature for 15 minutes. The light excited at 355 nm and emitted at 460 nm from the fluorophore was measured with a fluorometric plate reader. The intensity of the fluorescence increases as the enzyme activity is higher. The HDAC inhibitory activity of each of the test compounds was determined and compared with that of the control.
0.5 μl of HeLa nuclear organic layer (10 μM) (a source of HDAC enzymes) was then added thereto to a final concentration of 100 nM, The enzyme reaction was carried out for 1 hr.
as §1, §1

[1] = Table 1, formula (1) series, read-out: IC50 (HDAC inhibitory concentration)
[2] = Table 3, formula (2) series, read-out: IC50 (HDAC inhibitory concentration)
[3] = Table 5, formula (3) series, read-out: Inhibitory conc. (IC50, μM/ml)
[4] = Table 7, formula (4) series, read-out: HDAC Inhibitory conc. (IC50, μM/ml)

## O=C(NCCCn1ccnc1)/C(=C/c1ccc(C(=O)NO)cc1)COc1cccc2ccccc12 [Example 1-2, (E)-4-(3-(3-(1H-Imidazol-1-yl)propylamino)-2-((naphthalen-1-yloxy)methyl)-3-oxopropenyl)-N-hydroxybenzamide]
[1]
  IC50: 0.028 µM

## COc1ccc(CCNC(=O)/C(=C/c2ccc(C(=O)NO)cc2)COc2cccc3ccccc23)cc1 [Example 1-3, (E)-4-(3-(4-Methoxyphenethylamino)-2-((naphthalen-1-yloxy)methyl)-3-oxoprop-1-enyl)-N-hydroxybenzamide]
[1]
  IC50: 0.08 µM

## CC(C)N(CCNC(=O)/C(=C/c1ccc(C(=O)NO)cc1)COc1cccc2ccccc12)C(C)C [Example 1-5]
[1]
  IC50: 0.014 µM

## O=C(NCC1CCCO1)C(=Cc1ccc(C(=O)NO)cc1)COc1cccc2ccccc12 (stereo not shown) [Example 1-9, (E)-4-(3-(Tetrahydrofuran-2-yl)methylamino)-2-((naphthalen-1-yloxy)methyl)-3-oxoprop-1-enyl)-N-hydroxybenzamide]
[1]
  IC50: 0.06 µM

## O=C(NCCCN1CCCC1=O)/C(=C/c1ccc(C(=O)NO)cc1)COc1cccc2ccccc12 [Example 1-11, (E)-4-(3-(3-(2-Oxopyrrolidin-1-yl)propylamino)-2-((naphthalen-1-yloxy)methyl)-3-oxoprop-1-enyl)-N-hydroxy-benzamide]
[1]
  IC50: 0.04 µM

## COCCNC(=O)/C(=C/c1ccc(C(=O)NO)cc1)COc1cccc2ccccc12 [Example 1-14, (E)-4-(3-(2-Methoxyethylamino)-2-((naphthalen-1-yloxy)methyl)-3-oxoprop-1-enyl)-N-hydroxybenzamide]
[1]
  IC50: 0.03 µM

## O=C(NC1CCCCC1)/C(=C/c1ccc(C(=O)NO)cc1)COc1cccc2ccccc12 [Example 1-15, (E)-4-(3-(Cyclohexylamino)-2-((naphthalen-1-yloxy)methyl)-3-oxoprop-1-enyl)-N-hydroxybenzamide]
[1]
  IC50: 0.04 µM

## O=C(NCc1cccs1)/C(=C/c1ccc(C(=O)NO)cc1)COc1cccc2ccccc12 [Example 1-16, (E)-4-(3-(Thiophen-2-ylmethylamino)-2-((naphthalen-1-yloxy)methyl)-3-oxoprop-1-enyl)-N-hydroxybenzamide]
[1]
  IC50: 0.01 µM

## O=C(NCCCN1CCOCC1)/C(=C/c1ccc(C(=O)NO)cc1)COc1cccc2ccccc12 [Example 1-18, (E)-4-(3-(3-Morpholinopropylamino)-2-((naphthalen-1-yloxy)methyl)-3-oxoprop-1-enyl)-N-hydroxybenzamide]
[1]
  IC50: 0.021 µM

## CCOCCCNC(=O)/C(=C/c1ccc(C(=O)NO)cc1)COc1cccc2ccccc12 [Example 1-21, (E)-4-(3-(3-Ethoxypropylamino)-2-((naphthalen-1-yloxy)methyl)-3-oxoprop-1-enyl)-N-hydroxybenzamide]
[1]
  IC50: 0.021 µM

## O=C(CCCC/C=C(\COc1cccc2ccccc12)C(=O)NCCc1ccc(O)cc1)NO [Example 2-2, (E)-N8-Hydroxy-N1-(4-hydroxyphenethyl)-2-((naphthalen-1-yloxy)methyl)-2-octenediamide]
[2]
  IC50: 0.009 µM

## COCC(C)NC(=O)/C(=C/CCCCC(=O)NO)COc1cccc2ccccc12 (stereo not shown) [Example 2-5, (E)-N8-Hydroxy-N1-(1-methoxypropan-2-yl)-2-((naphthalen-1-yloxy)methyl)-2-octenediamide]
[2]
  IC50: 0.017 µM

## O=C(CCCC/C=C(\COc1cccc2ccccc12)C(=O)NCCc1ccc(F)cc1)NO [Example 2-7, (E)-N1-(4-Fluorophenethyl)-N8-hydroxy-2-((naphthalen-1-yloxy)methyl)-2-octenediamide]
[2]
  IC50: 0.02 µM

## O=C(CCCC/C=C(\COc1cccc2ccccc12)C(=O)NCCC1=CCCCC1)NO [Example 2-9, (E)-N1-(2-Cyclohexenylethyl)-N8-hydroxy-2-((naphthalen-1-yloxy)methyl)-2-octenediamide]
[2]
  IC50: 0.027 µM

## O=C(CCCC/C=C(\COc1cccc2ccccc12)C(=O)NCCCN1CCCC1=O)NO [Example 2-10, (E)-N8-Hydroxy-2-((naphthalen-1-yloxy)methyl)-N1-(3-(2-oxopyrrolidin-1-yl)propyl)-2-octenediamide]
[2]
  IC50: 0.016 µM

## O=C(CCCC/C=C(\COc1cccc2ccccc12)C(=O)NCc1ccc(OC(F)(F)F)cc1)NO [Example 2-17, (E)-N8-Hydroxy-2-((naphthalen-1-yloxy)methyl)-N1-(4-(trifluoromethoxy)benzyl)-2-octenediamide]
[2]
  IC50: 0.007 µM

## O=C(CCCC/C=C(\COc1cccc2ccccc12)C(=O)NC1CCN(CC2CCCCC2)C1)NO (stereo not shown) [Example 2-18, (E)-N1-(1-(Cyclohexylmethyl)pyrrolidin-3-yl)-N8-hydroxy-2-((naphthalen-1-yloxy)methyl)-2-octenediamide]
[2]
  IC50: 0.01 µM

## O=C(CCCC/C=C(\COc1cccc2ccccc12)C(=O)NC1CCN(C(=O)C2CCCCC2)C1)NO (stereo not shown) [Example 2-22, (E)-N1-(1-(Cyclohexanecarbonyl)pyrrolidin-3-yl)-N8-hydroxy-2-((naphthalen-1-yloxy)methyl)-2-octenediamide]
[2]
  IC50: 0.022 µM

## O=C(CCCC/C=C(\COc1cccc2ccccc12)C(=O)NC1CCNC1)NO (stereo not shown) [Example 2-24, (E)-N8-Hydroxy-2-((naphthalen-1-yloxy)methyl)-N1-(pyrrolidin-3-yl)-2-octenediamide]
[2]
  IC50: 0.012 µM

## CCN1CCC(NC(=O)/C(=C/CCCCC(=O)NO)COc2cccc3ccccc23)CC1 [Example 2-28, (E)-N1-(1-Ethylpiperidin-4-yl)-N8-hydroxy-2-((naphthalen-1-yloxy)methyl)-2-octenediamide]
[2]
  IC50: 0.013 µM

## CC1CCCCN1CCCNC/C(=C/CCCCC(=O)NO)COc1cccc2ccccc12 (stereo not shown) [Example 3-5, (Z)—N-Hydroxy-8-(3-(2-methylpiperidin-1-yl)propylamino)-7-((naphthalen-1-yloxy)methyl)oct-6-enamide]
[3]
  IC50: 0.062 µM

## CN(C)CCCNC/C(=C/CCCCC(=O)NO)COc1cccc2ccccc12 [Example 3-6, (Z)-8-(3-(Dimethylamino)propylamino)-N-hydroxy-7-((naphthalen-1-yloxy)methyl)oct-6-enamide]
[3]
  IC50: 0.002 µM

## CCN(CC)CCCNC/C(=C/CCCCC(=O)NO)COc1cccc2ccccc12 [Example 3-12, (Z)-8-(3-(Diethylamino)propylamino)-N-hydroxy-7-((naphthalen-1-yloxy)methyl)oct-6-enamide]
[3]
  IC50: 0.113 µM

## CC(C)N(CCNC/C(=C/CCCCC(=O)NO)COc1cccc2ccccc12)C(C)C [Example 3-13]
[3]
  IC50: 0.042 µM

## O=C(NO)c1ccc(/C=C(/CNCc2ccc(OC(F)(F)F)cc2)COc2cccc3ccccc23)cc1 [Example 4-3, (Z)—N-hydroxy-4-(3-(naphthalen-1-yloxy)-2-((4-(trifluoromethoxy)benzylamino)methyl)prop-1-enyl)-benzamide]
[4]
  IC50: 0.14 µM

## CC(C)(C)OC(=O)N1CCC(NC/C(=C/c2ccc(C(=O)NO)cc2)COc2cccc3ccccc23)C1 (stereo not shown) [Example 4-4, t-butyl (Z)-3-(3-(4-(hydroxycarbamoyl)phenyl)-2-((naphthalen-1-yloxy)methyl)allylamino)-pyrrolidine-1-carboxylate]
[4]
  IC50: 0.208 µM

## O=C(NO)c1ccc(/C=C(/CNC2CCNC2)COc2cccc3ccccc23)cc1 (stereo not shown) [Example 4-5, (Z)—N-hydroxy-4-(3-(naphthalen-1-yloxy)-2-((pyrrolidin-3-ylamino)methyl)prop-1-enyl)-benzamide]
[4]
  IC50: 0.02 µM

## O=C(NO)c1ccc(/C=C(/CNC2CCN(C(=O)C3CCCCC3)C2)COc2cccc3ccccc23)cc1 (stereo not shown) [Example 4-6, (Z)-4-(3-(1-(cyclohexylcarbonyl)pyrrolidin-3-ylamino)-2-((naphthalen-1-yloxy)-methyl)prop-1-enyl)-N-hydroxybenzamide]
[4]
  IC50: 0.061 µM

## O=C(NO)c1ccc(/C=C(/CNC2CCN(CC3CCCCC3)C2)COc2cccc3ccccc23)cc1 (stereo not shown) [Example 4-8, (Z)-4-(3-(1-(cyclohexylmethyl)pyrrolidin-3-ylamino)-2-((naphthalen-1-yloxy)-methyl)prop-1-enyl)-N-hydroxybenzamide]
[4]
  IC50: 0.045 µM

## O=C(NO)c1ccc(/C=C(/CNC2CCN(Cc3ccccc3)C2)COc2cccc3ccccc23)cc1 (stereo not shown) [Example 4-9, (Z)-4-(3-(1-benzylpyrrolidin-3-ylamino)-2-((naphthalen-1-yloxy)methyl)prop-1-enyl)-N-hydroxybenzamide]
[4]
  IC50: 0.046 µM

## O=C(NO)c1ccc(/C=C(/CNC2CCN(C3CCCCC3)C2)COc2cccc3ccccc23)cc1 (stereo not shown) [Example 4-12, (Z)-4-(3-(1-cyclohexylpyrrolidin-3-ylamino)-2-((naphthalen-1-yloxy)methyl)prop-1-enyl)-N-hydroxybenzamide]
[4]
  IC50: 0.04 µM

## CN1CCCC1CCNC/C(=C/c1ccc(C(=O)NO)cc1)COc1cccc2ccccc12 (stereo not shown) [Example 4-14, (Z)—N-hydroxy-4-(3-(2-(1-methylpyrrolidin-2-yl)ethylamino)-2-((naphthalen-1-yloxy)methyl)prop-1-enyl)benzamide]
[4]
  IC50: 0.013 µM

## O=C(NO)c1ccc(/C=C(/CNC2CCCCC2)COc2cccc3ccccc23)cc1 [Example 4-21, (Z)-4-(3-(cyclohexylamino)-2-((naphthalen-1-yloxy)methyl)prop-1-enyl)-N-hydroxybenzamide]
[4]
  IC50: 0.03 µM

## (E)-(3-(3-(2-Methylpiperidin-1-yl)propylamino)-2-((naphthalen-1-yloxy)methyl)-3-oxoprop-1-enyl)-N-hydroxybenzamide [Example 1-19]
[1]
  IC50: 0.009 µM
